In patent publication US9249125B2, “Pyrazole derivatives as p38 MAP inhibitors” (RESPIVERT LIMITED, priority 2012, dated 2016):
pEC50, pIC50: −log10 of the molar value.

Legend:
p38 MAPKα = p38 MAPKα (Homo sapiens (Human), UniProt Q16539); experiment: p38 MAPKα enzyme inhibition (FRET, Z-LYTE); format: biochemical
cSrc = cSrc (Homo sapiens (Human), UniProt P12931); experiment: c-Src enzyme inhibition (FRET, Z-LYTE); format: biochemical
Outline: (§1)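 Z-LYTE FRET kinase assay: enzyme (3000 or 2000 ng/mL stock, respectively) preincubated 2 h at RT with compound (4–0.004 μg/mL stocks), then FRET peptide plus ATP (800 μM stock for c-Src, 60 μM for Syk) added for 1 h. Protease development 1 h; phosphorylation from coumarin/fluorescein emission ratio.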

Syk = Syk (Homo sapiens (Human), UniProt P43405); experiment: Syk enzyme inhibition (FRET, Z-LYTE); format: biochemical
Outline: as §1

GSK3α = GSK3α (Homo sapiens (Human), UniProt P49840); experiment: GSK 3α enzyme inhibition (FRET, Z-LYTE); format: biochemical
GSK3α, sequence (P49840 whole entry): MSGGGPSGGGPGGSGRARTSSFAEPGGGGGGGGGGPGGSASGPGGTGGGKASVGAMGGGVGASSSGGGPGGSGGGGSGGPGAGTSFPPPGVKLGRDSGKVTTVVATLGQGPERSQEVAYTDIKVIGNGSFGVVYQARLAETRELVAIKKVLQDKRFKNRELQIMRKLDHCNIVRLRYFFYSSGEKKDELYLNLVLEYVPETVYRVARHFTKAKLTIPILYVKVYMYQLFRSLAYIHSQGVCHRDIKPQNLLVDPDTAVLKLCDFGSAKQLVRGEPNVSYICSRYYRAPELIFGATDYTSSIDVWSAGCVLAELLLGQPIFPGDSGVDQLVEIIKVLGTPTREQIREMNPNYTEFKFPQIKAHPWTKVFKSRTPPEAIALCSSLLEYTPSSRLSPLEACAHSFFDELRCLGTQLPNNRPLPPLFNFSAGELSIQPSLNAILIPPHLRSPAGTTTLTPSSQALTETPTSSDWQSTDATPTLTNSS
Outline: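 GSK3α (500 ng/mL stock) was preincubated 2 hr at RT with compound (4 to 0.004 μg/mL stocks), then FRET peptide (8 μM stock) and ATP (40 μM stock) added for 1 hr. Protease development for 1 hr cleaved unphosphorylated peptide; coumarin/fluorescein emission ratio reported phosphorylation.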

[1] = system: LPS-induced TNFα release in d-U937 cells; experiment: LPS-induced TNFα release in d-U937 cells; format: cell-based; details: Homo sapiens, dU937, relative to 10 μg/mL BIRB796, read-out: LPS Induced Release of Cytokine in d-937 Cells TNFα REC50
Description: U937 cells, a human monocytic cell line, are differentiated into macrophage-type cells by incubation with PMA (100 ng/mL) for 48 to 72 hr. Cells are pre-incubated with final concentrations of test compound for 2 hr and are then stimulated with LPS (0.1 μg/mL) (from E. coli: O111:B4, Sigma) for 4 hr. The supernatant is collected for determination of TNFα and IL-8 concentrations by sandwich ELISA (Duo-set, R&D systems). […] The relative 50% effective concentration (REC50) is determined from the resultant concentration-response curve. The inhibition of IL-8 production is calculated at each concentration of test compound by comparison with vehicle control. […] (b) LPS-Induced TNFα/IL-8 Release in PBMC Cells

[2] = system: LPS-induced IL-8 release in d-U937 cells; experiment: LPS-induced IL-8 release in d-U937 cells; format: cell-based; details: Homo sapiens, dU937, read-out: LPS Induced Release of Cytokine in d-937 Cells IL-8 IC50
Outline: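 First, U937 monocytes undergo PMA treatment (100 ng/mL) for 48 to 72 hr to become macrophage-type. Next, compound at final concentrations is added for 2 hr, followed by LPS at 0.1 μg/mL for 4 hr. Finally, cytokines in the supernatant are quantified by ELISA against vehicle-treated cells.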

[3] = system: Poly I:C-induced ICAM-1 expression in BEAS2B cells; experiment: Poly I:C-induced ICAM-1 expression in BEAS2B cells; format: cell-based; details: Homo sapiens, BEAS-2B, read-out: Poly IC induced ICAM1 in BEAS2B IC50
Outline: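 BEAS2B human bronchial epithelial cells pre-incubated with compound for 2 hr, then transfected with 1 μg/mL poly I:C plus Oligofectamine. At 18 hr, surface ICAM-1 measured by cell-based ELISA (HRP, OD450–655). Signal corrected for cell number by crystal violet OD595.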

d-U937 cells = experiment: Cell viability: MTT assay; format: cell-based, human; details: 1 μg/mL
Outline: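 Differentiated U937 cells were exposed to compound at 1 or 10 μg/mL either 4 h in 5% FCS RPMI1640 or 24 h in 10% FCS RPMI1640, then given MTT for 1 h, DMSO-solubilised and read at 550 nm. Percent viability loss versus 0.5% DMSO vehicle; apparent gains appear negative.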

cSrc, sequence (P12931 whole entry, looked up): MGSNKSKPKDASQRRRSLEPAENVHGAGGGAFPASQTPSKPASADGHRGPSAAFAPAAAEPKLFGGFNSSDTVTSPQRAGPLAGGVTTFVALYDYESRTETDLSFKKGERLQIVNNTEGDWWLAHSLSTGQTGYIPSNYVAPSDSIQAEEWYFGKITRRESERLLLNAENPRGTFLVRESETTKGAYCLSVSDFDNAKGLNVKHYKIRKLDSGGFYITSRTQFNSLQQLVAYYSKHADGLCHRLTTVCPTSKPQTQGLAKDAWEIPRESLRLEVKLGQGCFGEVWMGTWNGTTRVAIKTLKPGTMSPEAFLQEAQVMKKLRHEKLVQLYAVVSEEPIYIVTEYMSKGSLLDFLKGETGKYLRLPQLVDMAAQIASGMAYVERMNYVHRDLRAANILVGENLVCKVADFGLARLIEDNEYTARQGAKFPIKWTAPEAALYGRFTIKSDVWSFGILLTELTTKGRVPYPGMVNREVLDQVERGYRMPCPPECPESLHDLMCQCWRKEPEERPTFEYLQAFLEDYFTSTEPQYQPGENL
p38 MAPKα, sequence (Q16539 whole entry): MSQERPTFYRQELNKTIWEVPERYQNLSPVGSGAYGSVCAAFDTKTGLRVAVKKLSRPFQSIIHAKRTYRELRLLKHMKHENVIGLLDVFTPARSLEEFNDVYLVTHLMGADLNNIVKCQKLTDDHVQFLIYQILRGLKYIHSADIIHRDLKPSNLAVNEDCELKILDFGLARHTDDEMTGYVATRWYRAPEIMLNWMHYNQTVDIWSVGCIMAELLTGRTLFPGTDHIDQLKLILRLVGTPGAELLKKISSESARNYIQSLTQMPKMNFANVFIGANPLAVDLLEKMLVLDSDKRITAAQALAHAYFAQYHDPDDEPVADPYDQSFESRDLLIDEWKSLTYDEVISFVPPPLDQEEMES

Compound	pIC50 (p38 MAPKα)	pIC50 (cSrc)	pIC50 (Syk)	pIC50 (GSK3α)	pEC50 [1]	pIC50 [2]	pIC50 [3]	MTT Assay Cell viability at time point in d-U937 cells 4 h (d-U937 cells)	MTT Assay Cell viability at time point in d-U937 cells 24 h (d-U937 cells)
Cc1ccc(-n2nc(C(C)(C)C)cc2NC(=O)Nc2ccc(Oc3ccnc(Nc4cccc5cn[nH]c45)n3)c3ccccc23)cc1 [Example 25]	6.28	7.34	6.12	< 4.80	9.10	8.77	7.85	−ve (−ve and +ve indicate that the value is below and above respectively, the no significant effect threshold, defined as 30% inhibition at 1 μg/mL at the time point indicated.)	−ve (−ve and +ve indicate that the value is below and above respectively, the no significant effect threshold, defined as 30% inhibition at 1 μg/mL at the time point indicated.)
Cc1ccc(-n2nc(C(C)(C)C)cc2NC(=O)Nc2ccc(Oc3ccnc(Nc4cc(C)c5[nH]ncc5c4)n3)c3ccccc23)cc1 [Example 27, 1-(3-(tert-butyl)-1-(p-tolyl)-1H-pyrazol-5-yl)-3-(4-((2-((7-methyl-1H-indazol-5-yl)amino)pyrimidin-4-yl)oxy)naphthalen-1-yl)urea]	6.58	7.96	7.77	< 5.80	8.70	9.15	8.62	−ve (−ve and +ve indicate that the value is below and above respectively, the no significant effect threshold, defined as 30% inhibition at 1 μg/mL at the time point indicated.)	−ve (−ve and +ve indicate that the value is below and above respectively, the no significant effect threshold, defined as 30% inhibition at 1 μg/mL at the time point indicated.)
Cc1ccc(-n2nc(C(C)(C)C)cc2NC(=O)Nc2ccc(Oc3ccnc(Nc4cc(Cl)c5[nH]ncc5c4)n3)c3ccccc23)cc1 [Example 28, 1-(3-(tert-butyl)-1-(p-tolyl)-1H-pyrazol-5-yl)-3-(4-((2-((7-chloro-1H-indazol-5-yl)amino)pyrimidin-4-yl)oxy)naphthalen-1-yl)urea]	< 5.82	6.79	6.15	< 5.82	8.80	8.77	8.47	−ve (−ve and +ve indicate that the value is below and above respectively, the no significant effect threshold, defined as 30% inhibition at 1 μg/mL at the time point indicated.)	−ve (−ve and +ve indicate that the value is below and above respectively, the no significant effect threshold, defined as 30% inhibition at 1 μg/mL at the time point indicated.)
Cc1ccc(-n2nc(C(C)(C)C)cc2NC(=O)Nc2ccc(Oc3ccnc(Nc4ccc5c(c4)OCO5)n3)c3ccccc23)cc1 [Example 33, 1-(4-((2-(benzo[d][1,3]dioxol-5-ylamino)pyrimidin-4-yl)oxy)naphthalen-1-yl)-3-(3-(tert-butyl)-1-(p-tolyl)-1H-pyrazol-5-yl)urea]	6.43	7.64	6.17	5.29	8.42	8.48	8.57	−ve (−ve and +ve indicate that the value is below and above respectively, the no significant effect threshold, defined as 30% inhibition at 1 μg/mL at the time point indicated.)	−ve (−ve and +ve indicate that the value is below and above respectively, the no significant effect threshold, defined as 30% inhibition at 1 μg/mL at the time point indicated.)
CC(C)(C)c1cc(NC(=O)Nc2ccc(Oc3ccnc(Nc4ccc5[nH]ccc5c4)n3)c3ccccc23)n(-c2ccc(O)cc2)n1 [Example 37, 1-(4-((2-((1H-indol-5-yl)amino)pyrimidin-4-yl)oxy)naphthalen-1-yl)-3-(3-(tert-butyl)-1-(4-hydroxyphenyl)-1H-pyrazol-5-yl)urea]	6.48	7.80	6.85	< 5.80	8.60	8.23	8.43	−ve (−ve and +ve indicate that the value is below and above respectively, the no significant effect threshold, defined as 30% inhibition at 1 μg/mL at the time point indicated.)	−ve (−ve and +ve indicate that the value is below and above respectively, the no significant effect threshold, defined as 30% inhibition at 1 μg/mL at the time point indicated.)

More lines, in order of rising pIC50 (p38 MAPKα), values ahead:

pIC50 (p38 MAPKα)	pIC50 (cSrc)	pIC50 (Syk)	pIC50 (GSK3α)	pEC50 [1]	pIC50 [2]	Compound	pIC50 [3]	MTT Assay Cell viability at time point in d-U937 cells 4 h (d-U937 cells)	MTT Assay Cell viability at time point in d-U937 cells 24 h (d-U937 cells)
6.84	7.92	6.74	< 4.80	8.66	8.66	Cc1ccc(-n2nc(C(C)(C)C)cc2NC(=O)Nc2ccc(Oc3ccnc(Nc4ccc5c(cnn5C)c4)n3)c3ccccc23)cc1 [Example 26, 1-(3-(tert-butyl)-1-(p-tolyl)-1H-pyrazol-5-yl)-3-(4-((2-((1-methyl-1H-indazol-5-yl)amino)pyrimidin-4-yl)oxy)naphthalen-1-yl)urea]	8.64	−ve (−ve and +ve indicate that the value is below and above respectively, the no significant effect threshold, defined as 30% inhibition at 1 μg/mL at the time point indicated.)	−ve (−ve and +ve indicate that the value is below and above respectively, the no significant effect threshold, defined as 30% inhibition at 1 μg/mL at the time point indicated.)
7.21	6.95	8.22	6.05	8.77	8.66	Cc1ccc(-n2nc(C(C)(C)C)cc2NC(=O)Nc2ccc(Oc3ccnc(Nc4ccc5c(c4)CC(=O)N5C)n3)c3ccccc23)cc1 [Example 20, 1-(3-(tert-butyl)-1-(p-tolyl)-1H-pyrazol-5-yl)-3-(4-((2-((1-methyl-2-oxoindolin-5-yl)amino)pyrimidin-4-yl)oxy)naphthalen-1-yl)urea]	8.20	−ve (−ve and +ve indicate that the value is below and above respectively, the no significant effect threshold, defined as 30% inhibition at 1 μg/mL at the time point indicated.)	−ve (−ve and +ve indicate that the value is below and above respectively, the no significant effect threshold, defined as 30% inhibition at 1 μg/mL at the time point indicated.)
7.24	7.92	7.54	6.24	8.00	7.68	Cc1ccc(-n2nc(C(C)(C)C)cc2NC(=O)Nc2ccc(Oc3ccnc(Nc4ccc5c(cnn5CCN5CCOCC5)c4)n3)c3ccccc23)cc1 [Example 29, 1-(3-(tert-butyl)-1-(p-tolyl)-1H-pyrazol-5-yl)-3-(4-((2-((1-(2-morpholinoethyl)-1H-indazol-5-yl)amino)pyrimidin-4-yl)oxy)naphthalen-1-yl)urea]	9.05	−ve (−ve and +ve indicate that the value is below and above respectively, the no significant effect threshold, defined as 30% inhibition at 1 μg/mL at the time point indicated.)	−ve (−ve and +ve indicate that the value is below and above respectively, the no significant effect threshold, defined as 30% inhibition at 1 μg/mL at the time point indicated.)
